Measured values reported in patent publication US12570694B2, “Peptides and pharmaceutical, nutraceutical or veterinary compositions for hair loss prevention and/or treatment” (VYTRUS BIOTECH, S.L., priority 2016, dated 2026).

Key:
Type in all cases: cell-based
[1] = system: human hair follicle papilla cells (HFDPC); experiment: In vitro proliferation of hair follicle dermal papilla cells (BrdU incorporation)
Method: In order to test the effects of the cell-free supernatants, as well as of the peptides of the invention, a proliferation assay was conducted onto human hair follicle papilla cells (CELL APPLICATIONS, INC; Normal human hair follicles from temporal scalp. Single donor: Ref. 602-05a. Lot. 2092.).
The culture media was a Papilla Cell Basal Medium supplemented with the Growth Supplements kit (Relative composition: Fetal bovine serum, growth factors and antibiotics. Application: 6% v/v).
HFDPC proliferation was assessed determining the proliferation index (%). Cell DNA replication was quantified by means of incorporated bromodeoxiuridine (BrdU) into DNA of treated cells. BrdU assay allows measuring cell proliferation based on cell capability of incorporating BrdU during S-phase of the cell cycle. Cells being divided incorporated BrdU that is further detected by means of antibodies and immunocytochemistry detection.
Cells were seeded at confluence in a 96-well plate. After stabilization and synchronization of cell cultures the tested products were added (at the final concentration indicated in Table 1 of Examples. After that, BrdU was added to cultures and HFDPC were incubated at 37° C. until complete BrdU incorporation. BrdU amounts were proportional to the number of cell divisions and thus to the growth of the treated culture.
Data are depicted in FIG. 1, FIG. 2 and FIG. 3, wherein it is shown the proliferation index (%) of HFDPC, calculated as the percentage of growing in relation to the basal control (non-treated HFDPC) which is accorded a 100% value of proliferation index.

[2] = system: human dermal fibroblasts (HDF); experiment: In vitro proliferation of human dermal fibroblasts (BrdU incorporation); conditions: basal control = 100%
Method: In order to further test the effects of the peptides of the invention in an additional setting, a proliferation assay was conducted onto human dermal fibroblasts (HDF).
Normal Human Dermal Fibroblasts (HDF) were obtained from foreskin samples, surpluses from surgery of young donors (0-3 years old) and stablished by using the standard method of explants growth and enzymic dissociation of proliferating cells. Cells were propagated and grown in Growth Medium (GM): Dulbecco's 1 g/L glucose medium, supplemented with 10% foetal bovine serum (FBS, PAA); 2 mM L-glutamine (Lonza); and antibiotics (100 μg/ml Penicillin and 100 U/ml of Streptomycin, Lonza). For routine subcultivation and propagation of the primary culture, cells were washed twice with PBS ([…] buffered saline, pH 7.4), harvested with trypsin—EDTA (Gibco) and counted in Neubauer chamber before its seeding in a new cell culture flask (Falcon, 75 cm2).
Test products were prepared at the defined final concentrations by its dilution in Maintenance Medium (Dulbecco's 1 g/L glucose medium, supplemented with 1% foetal bovine serum (FBS, PAA); 2 mM L-glutamine (Lonza); and antibiotics (100 μg/ml Penicillin and 100 U/ml of Streptomycin, Lonza), just before each application.
HFD proliferation was assessed determining the proliferation index (%). Cell DNA replication was quantified by means of incorporated bromodeoxiuridine (BrdU) into DNA of treated cells. […] Cells being divided incorporated BrdU that is further detected by means of antibodies and immunocytochemistry detection. […]
Data are depicted in FIG. 6 and FIG. 7, wherein it is shown the proliferation index (%) of HDF, calculated as the percentage of growing in relation to the basal control (non-treated HDF) which is accorded a 100% value of proliferation index. […]
Data are depicted in FIG. 16, wherein it is shown the proliferation index (%) of HDF, calculated as the percentage of growing in relation to the basal control (non-treated HDF) which is accorded a 100% value of proliferation index.

[3] = system: human dermal fibroblasts (HDF); experiment: Wound healing (scratch) assay on human dermal fibroblasts; conditions: FIG. 17; 5 μg/ml and 0.05 μg/ml; 5 days of treatment; triplicate mean; vs 0.1% FBS basal, 10% FBS and TGF-β1 positive controls
Method: In order to test the effect of the sulfaction state of the peptides on their activity, it is herewith provided as reference example a wound healing assay conducted onto human dermal fibroblasts (HDF).
Human dermal fibroblasts were seeded in a 24-well plate and were grown to confluence. A 2 mm width scratch was done on the culture monolayer. Then the test products in culture medium were added and the cicatrisation process was followed by means of phase contrast microscopy. With this aim, photographs were taken at initial of the test (T=0 h) before the scratching and after the treatment (at 12 h and at 72 h). Cicatrisation process was evaluated by quantifying wound area reduction at each time.
Data at the end of the test (5 days of treatment) are depicted in FIG. 17, wherein the wound healing potential is depicted as the Healed Area (in μm^2) for assayed peptide.
The results derive from a triplicate test. Values of cicatrised area (or % of cicatrisation) are the mean values.

In the case of “CH3—C(O)—YIYT-NH2 (Ac-YIYT-NH2) [SEQ ID NO: 6, in vivo: dissolved 0.025% w/w in PBS buffered fortifying solution 2×]”, the “proliferation index of HFDPC” value ([1]; FIG. 1, relative to basal control (non-treated HFDPC) = 100%, concentrations C1/C2 of Table 1) is reported as “showed the best results”, the “proliferation index of HFDPC” value ([1]; FIGS. 2 and 3, peptides with or without end-terminal modifications at 5.86, 2.93, 1.46 μg/ml, basal control = 100%) is reported as “can promote cell proliferation” and the “proliferation index of HDF” value ([2]; Assay 5, FIG. 16, peptide, nutritive solution, or both in combination) is reported as “can promote cell proliferation”. For the same substance, the “proliferation index of HDF” value ([2]; FIGS. 6 and 7, 4Aa at 25, 12.5, 1.25 μg/ml, 5Aa at 1.25, 0.63, 0.25 μg/ml) was “can promote cell proliferation of HDF” and the “wound healing potential, Healed Area” value [3] was “independent of its sulfaction state”.
